In ChEMBL document CHEMBL4373732, “Phosphatidylinositol 3 kinase (PI3K) inhibitors as new weapon to combat cancer” (Eur J Med Chem, 2019):

Tests used:
[1] = molecular target: Phosphatidylinositol 4,5-bisphosphate 3-kinase catalytic subunit alpha isoform (Homo sapiens, UniProt P42336); assay: Inhibition of PI3K p110alpha (unknown origin)
[2] = molecular target: T1, Phosphatidylinositol 4,5-bisphosphate 3-kinase catalytic subunit beta isoform (Homo sapiens, UniProt P42338); assay: Inhibition of PI3K p110beta (unknown origin)
T1 sequence (P42338 whole entry, canonical isoform): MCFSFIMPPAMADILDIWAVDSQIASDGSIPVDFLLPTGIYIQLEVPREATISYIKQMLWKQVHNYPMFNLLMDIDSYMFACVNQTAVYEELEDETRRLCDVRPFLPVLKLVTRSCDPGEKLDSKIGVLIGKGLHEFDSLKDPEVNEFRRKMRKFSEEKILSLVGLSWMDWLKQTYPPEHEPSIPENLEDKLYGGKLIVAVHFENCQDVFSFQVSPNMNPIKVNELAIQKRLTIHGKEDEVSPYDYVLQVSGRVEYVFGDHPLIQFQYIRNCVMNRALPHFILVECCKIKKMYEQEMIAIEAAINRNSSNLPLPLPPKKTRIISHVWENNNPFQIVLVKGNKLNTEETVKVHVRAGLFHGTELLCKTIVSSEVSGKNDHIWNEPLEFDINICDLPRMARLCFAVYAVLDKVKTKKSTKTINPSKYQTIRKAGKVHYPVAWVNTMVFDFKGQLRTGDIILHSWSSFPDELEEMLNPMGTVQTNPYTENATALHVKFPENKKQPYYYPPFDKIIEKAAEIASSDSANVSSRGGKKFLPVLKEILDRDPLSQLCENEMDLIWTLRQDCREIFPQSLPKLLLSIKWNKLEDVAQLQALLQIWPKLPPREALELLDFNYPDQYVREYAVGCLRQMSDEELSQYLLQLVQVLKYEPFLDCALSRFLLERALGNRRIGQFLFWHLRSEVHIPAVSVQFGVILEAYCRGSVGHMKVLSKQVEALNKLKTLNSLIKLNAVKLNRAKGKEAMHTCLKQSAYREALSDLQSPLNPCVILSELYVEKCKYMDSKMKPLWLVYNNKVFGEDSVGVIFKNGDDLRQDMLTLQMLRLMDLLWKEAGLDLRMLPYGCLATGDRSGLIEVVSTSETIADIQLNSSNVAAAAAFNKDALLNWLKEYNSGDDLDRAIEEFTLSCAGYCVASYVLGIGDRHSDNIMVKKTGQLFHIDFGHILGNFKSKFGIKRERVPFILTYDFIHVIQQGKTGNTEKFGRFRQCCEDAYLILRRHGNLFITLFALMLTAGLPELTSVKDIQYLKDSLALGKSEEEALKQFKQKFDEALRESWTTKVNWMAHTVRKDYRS

[3] = molecular target: T2, Phosphatidylinositol 4,5-bisphosphate 3-kinase catalytic subunit delta isoform (Homo sapiens, UniProt O00329); assay: Inhibition of PI3K p110delta (unknown origin)
T2 sequence (O00329 whole entry): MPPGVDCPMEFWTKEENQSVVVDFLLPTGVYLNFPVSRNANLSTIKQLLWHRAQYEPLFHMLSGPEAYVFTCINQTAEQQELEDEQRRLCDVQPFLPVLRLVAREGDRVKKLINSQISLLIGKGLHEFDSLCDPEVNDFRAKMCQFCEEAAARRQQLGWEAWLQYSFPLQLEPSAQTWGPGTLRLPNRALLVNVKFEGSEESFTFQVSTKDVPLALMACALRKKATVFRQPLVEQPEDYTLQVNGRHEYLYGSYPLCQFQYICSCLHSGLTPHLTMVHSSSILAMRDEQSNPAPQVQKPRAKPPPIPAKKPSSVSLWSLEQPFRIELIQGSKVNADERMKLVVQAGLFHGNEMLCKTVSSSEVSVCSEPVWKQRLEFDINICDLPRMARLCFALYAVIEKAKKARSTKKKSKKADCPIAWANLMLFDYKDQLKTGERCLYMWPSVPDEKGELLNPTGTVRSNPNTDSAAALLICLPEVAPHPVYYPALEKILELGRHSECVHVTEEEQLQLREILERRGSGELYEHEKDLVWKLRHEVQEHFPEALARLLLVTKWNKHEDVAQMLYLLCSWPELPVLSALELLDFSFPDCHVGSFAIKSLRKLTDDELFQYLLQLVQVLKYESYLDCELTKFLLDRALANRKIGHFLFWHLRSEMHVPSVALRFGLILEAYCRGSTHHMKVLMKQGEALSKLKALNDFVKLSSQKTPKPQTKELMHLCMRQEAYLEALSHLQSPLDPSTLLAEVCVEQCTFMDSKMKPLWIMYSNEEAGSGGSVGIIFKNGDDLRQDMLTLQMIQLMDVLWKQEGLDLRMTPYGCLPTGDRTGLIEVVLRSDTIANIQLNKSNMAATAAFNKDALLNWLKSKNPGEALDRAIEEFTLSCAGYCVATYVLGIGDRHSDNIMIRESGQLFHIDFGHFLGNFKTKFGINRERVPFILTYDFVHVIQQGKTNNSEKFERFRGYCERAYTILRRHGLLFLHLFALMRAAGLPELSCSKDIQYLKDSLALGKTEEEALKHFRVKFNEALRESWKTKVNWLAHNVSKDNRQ

[4] = molecular target: T3, Phosphatidylinositol 4,5-bisphosphate 3-kinase catalytic subunit gamma isoform (Homo sapiens, UniProt P48736); assay: Inhibition of PI3K p110gamma (unknown origin)
T3 sequence (P48736 whole entry, canonical isoform): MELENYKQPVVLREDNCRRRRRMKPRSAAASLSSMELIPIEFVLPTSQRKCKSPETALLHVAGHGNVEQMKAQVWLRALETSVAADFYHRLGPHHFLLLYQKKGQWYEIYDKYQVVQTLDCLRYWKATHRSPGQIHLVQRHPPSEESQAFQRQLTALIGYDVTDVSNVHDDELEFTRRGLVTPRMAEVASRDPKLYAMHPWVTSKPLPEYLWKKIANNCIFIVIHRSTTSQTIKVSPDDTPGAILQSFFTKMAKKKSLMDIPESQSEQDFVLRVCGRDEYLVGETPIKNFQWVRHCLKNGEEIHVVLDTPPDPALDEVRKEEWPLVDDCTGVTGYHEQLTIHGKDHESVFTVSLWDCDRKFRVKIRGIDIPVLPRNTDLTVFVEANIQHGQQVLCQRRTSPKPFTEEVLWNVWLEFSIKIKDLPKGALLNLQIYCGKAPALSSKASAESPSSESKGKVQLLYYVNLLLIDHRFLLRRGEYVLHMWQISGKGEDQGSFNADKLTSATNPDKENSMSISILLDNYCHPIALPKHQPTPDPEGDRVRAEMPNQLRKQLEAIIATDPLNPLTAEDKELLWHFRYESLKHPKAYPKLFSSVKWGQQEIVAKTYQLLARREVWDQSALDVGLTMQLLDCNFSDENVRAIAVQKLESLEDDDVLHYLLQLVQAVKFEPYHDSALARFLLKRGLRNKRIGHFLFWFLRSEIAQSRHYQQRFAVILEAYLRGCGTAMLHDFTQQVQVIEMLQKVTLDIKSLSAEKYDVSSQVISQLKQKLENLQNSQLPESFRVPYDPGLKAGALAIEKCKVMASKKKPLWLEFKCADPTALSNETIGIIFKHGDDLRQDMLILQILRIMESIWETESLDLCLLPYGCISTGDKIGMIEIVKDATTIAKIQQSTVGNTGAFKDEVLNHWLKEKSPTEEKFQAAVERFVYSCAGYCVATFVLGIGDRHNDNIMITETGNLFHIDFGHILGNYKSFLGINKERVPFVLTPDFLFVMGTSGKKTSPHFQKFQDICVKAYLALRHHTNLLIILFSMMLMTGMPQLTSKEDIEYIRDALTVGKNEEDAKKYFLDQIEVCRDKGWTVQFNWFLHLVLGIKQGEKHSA

[5] = molecular target: Serine/threonine-protein kinase mTOR (Homo sapiens, UniProt P42345)
[6] = molecular target: T2, Phosphatidylinositol 4,5-bisphosphate 3-kinase catalytic subunit delta isoform; assay: Inhibition of PI3Kdelta (unknown origin)
[7] = molecular target: T3, Phosphatidylinositol 4,5-bisphosphate 3-kinase catalytic subunit gamma isoform; assay: Reversible competitive inhibition of PI3K p110gamma (unknown origin)
[8] = molecular target: T1, Phosphatidylinositol 4,5-bisphosphate 3-kinase catalytic subunit beta isoform

Phosphatidylinositol 4,5-bisphosphate 3-kinase catalytic subunit alpha isoform, sequence (P42336 whole entry, canonical isoform): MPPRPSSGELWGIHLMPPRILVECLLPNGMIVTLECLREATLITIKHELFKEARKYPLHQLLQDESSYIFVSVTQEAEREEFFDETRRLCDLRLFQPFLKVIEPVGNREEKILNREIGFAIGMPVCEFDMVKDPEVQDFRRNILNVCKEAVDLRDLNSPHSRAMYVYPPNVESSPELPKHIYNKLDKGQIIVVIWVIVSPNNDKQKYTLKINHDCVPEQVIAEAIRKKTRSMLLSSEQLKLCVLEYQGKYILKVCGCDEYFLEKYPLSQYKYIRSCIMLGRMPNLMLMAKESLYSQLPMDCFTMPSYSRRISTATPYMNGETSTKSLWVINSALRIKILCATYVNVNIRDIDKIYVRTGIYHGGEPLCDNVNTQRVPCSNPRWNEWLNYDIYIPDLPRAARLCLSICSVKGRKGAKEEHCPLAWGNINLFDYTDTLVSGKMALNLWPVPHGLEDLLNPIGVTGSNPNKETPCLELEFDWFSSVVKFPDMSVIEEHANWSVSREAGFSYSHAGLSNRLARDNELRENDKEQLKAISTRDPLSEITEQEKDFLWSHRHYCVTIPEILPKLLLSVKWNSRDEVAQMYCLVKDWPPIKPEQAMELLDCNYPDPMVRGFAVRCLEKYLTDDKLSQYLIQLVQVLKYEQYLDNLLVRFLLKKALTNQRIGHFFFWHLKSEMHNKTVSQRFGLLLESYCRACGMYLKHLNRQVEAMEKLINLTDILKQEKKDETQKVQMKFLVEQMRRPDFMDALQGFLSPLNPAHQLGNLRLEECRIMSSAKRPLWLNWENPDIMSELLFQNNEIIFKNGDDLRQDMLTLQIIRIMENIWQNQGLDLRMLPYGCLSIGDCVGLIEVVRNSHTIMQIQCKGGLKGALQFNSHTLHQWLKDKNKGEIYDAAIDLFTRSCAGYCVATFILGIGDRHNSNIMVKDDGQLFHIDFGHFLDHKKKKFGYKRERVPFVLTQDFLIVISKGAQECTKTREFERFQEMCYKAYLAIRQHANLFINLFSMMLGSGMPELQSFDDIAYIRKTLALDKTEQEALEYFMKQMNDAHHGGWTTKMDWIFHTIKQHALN

`CCn1c(=O)c(-c2cc[nH]n2)cc2c(C)nc(N)nc21` [VOXTALISIB] was tested, and the IC50 [1] was 39 nM, the IC50 [2] was 113 nM and the IC50 [3] was 43 nM. For the same compound, the IC50 [4] was 9 nM and the IC50 [5] was 157 nM.

Work on `C[C@H](Nc1ncnc2[nH]cnc12)c1nc2ccc(F)cc2c(=O)n1-c1ccccc1` [ACALISIB] yielded an IC50 [6] of 12.7 nM.

`COc1ccc(Cl)c(Nc2nc3ccccc3nc2NS(=O)(=O)c2cccc(NC(=O)C(C)(C)N)c2)c1` [PILARALISIB] gave an IC50 [7] of 383 nM and an IC50 [8] of 36 nM.
